Data on five compounds can be found in ChEMBL document CHEMBL5150032, “Sunitinib-based Proteolysis Targeting Chimeras (PROTACs) reduced the protein levels of FLT-3 and c-KIT in leukemia cell lines” (Bioorg Med Chem Lett, 2022).

Each structure is given as a SMILES string. Active and inactive are the calls of the source. The rule behind the calls is not given here. Residues, ends and D or L forms follow the SMILES beside them. *: point of attachment. Cbz = O=C(OCc1ccccc1)* A value given as a limit tells only on which side of the number the result lay.

The test system of data set [1] is K562. Briefly: Antiproliferative activity against human K562 cells assessed as inhibition of cell growth incubated for 48 hrs by CCK-8 assay. It counts as functional, cell-based. The settings on record: K562, 48 h.
The subject of data set [2] is HL-60. In words: Antiproliferative activity against human HL-60 cells assessed as inhibition of cell growth incubated for 48 hrs by CCK-8 assay. The settings on record: HL-60, 48 h. It counts as functional, cell-based.
In data set [3] the test system is A498. In words: Antiproliferative activity against human A498 cells assessed as inhibition of cell growth incubated for 48 hrs by CCK-8 assay. It is filed as functional, cell-based. To be noted: A498, 48 h.
In data set [4] the test system is HL-60. In words: Antiproliferative activity against human HL-60 cells assessed as reduction in cell viability at 20 uM incubated for 24 hrs by CCK-8 assay. It is filed as functional, cell-based.
Data set [5] addresses T1, von Hippel-Lindau disease tumor suppressor/Mast/stem cell growth factor receptor Kit (Homo sapiens) (UniProt P10721+P40337). Briefly: PROTAC activity at VHL/c-KIT in human HL-60 cells assessed as reduction in c-KIT protein level at 20 uM preincubated with VHL032 for 1 hrs followed by compound addition and measured after for 48 hrs by Western blot analysis. It counts as cell-based.

The subject of data set [6] is K562. In words: Antiproliferative activity against human K562 cells assessed as reduction in cell viability at 20 uM incubated for 24 hrs by CCK-8 assay. It counts as functional, cell-based.
Data set [7] deals with T1, von Hippel-Lindau disease tumor suppressor/Mast/stem cell growth factor receptor Kit (Homo sapiens). In words: PROTAC activity at VHL/c-KIT in human HL-60 cells assessed as reduction in c-KIT protein level at >10 uM measured at 24 to 48 hrs by Western blot analysis. The settings on record: time 24-48 hrs. It counts as cell-based.
A short description of data set [8]: Cytotoxicity against human NCM460 cells assessed as inhibition of cell growth. It counts as toxicity, cell-based.
The test system of data set [9] is A498. Briefly: Antiproliferative activity against human A498 cells assessed as reduction in cell viability at 20 uM incubated for 24 hrs by CCK-8 assay. It is filed as functional, cell-based.
Data set [10] deals with T2, von Hippel-Lindau disease tumor suppressor/Receptor-type tyrosine-protein kinase FLT3 (Homo sapiens) (UniProt P36888+P40337). Briefly: PROTAC activity at VHL/FLT-3 in human HL-60 cells assessed as reduction in FLT-3 protein level at 10 uM by Western blot analysis. It is filed as cell-based. The settings on record: time 4-48 hrs, TDE = time-dependent effect.
Data set [11] has as its target T2, von Hippel-Lindau disease tumor suppressor/Receptor-type tyrosine-protein kinase FLT3 (Homo sapiens). In words: PROTAC activity at VHL/FLT-3 in human HL-60 cells assessed as reduction in FLT-3 protein level at 20 uM incubated for 24 hrs by Western blot analysis. It is filed as cell-based.
For data set [12] the target is unchanged. Briefly: PROTAC activity at VHL/FLT-3 in human K562 cells assessed as reduction in FLT-3 protein level at 20 uM incubated for 48 hrs by Western blot analysis. It is filed as cell-based.
For data set [13] the target is unchanged. Briefly: PROTAC activity at VHL/FLT-3 in human HL-60 cells assessed as reduction in FLT-3 protein level at 20 uM preincubated with MG-132 for 1 hrs followed by compound addition and measured after for 48 hrs by Western blot analysis. It counts as cell-based.
For data set [14] the target is unchanged. In words: PROTAC activity at VHL/FLT-3 in human HL-60 cells assessed as reduction in FLT-3 protein level at 10 uM incubated for 12 hrs by Western blot analysis. It is filed as cell-based.
Data set [15] has the same target. Briefly: PROTAC activity at VHL/FLT-3 in human HL-60 cells assessed as reduction in FLT-3 protein level at 10 to 20 uM incubated for 48 hrs by Western blot analysis. The settings on record: dose 10-20 µM. It is filed as cell-based.
Data set [16] has the same target. Briefly: PROTAC activity at VHL/FLT-3 in human HL-60 cells assessed as reduction in FLT-3 protein level at 1 uM incubated for 1 hrs by Western blot analysis. It is filed as cell-based.

T2 sequence (P36888 27-993 limits assumed): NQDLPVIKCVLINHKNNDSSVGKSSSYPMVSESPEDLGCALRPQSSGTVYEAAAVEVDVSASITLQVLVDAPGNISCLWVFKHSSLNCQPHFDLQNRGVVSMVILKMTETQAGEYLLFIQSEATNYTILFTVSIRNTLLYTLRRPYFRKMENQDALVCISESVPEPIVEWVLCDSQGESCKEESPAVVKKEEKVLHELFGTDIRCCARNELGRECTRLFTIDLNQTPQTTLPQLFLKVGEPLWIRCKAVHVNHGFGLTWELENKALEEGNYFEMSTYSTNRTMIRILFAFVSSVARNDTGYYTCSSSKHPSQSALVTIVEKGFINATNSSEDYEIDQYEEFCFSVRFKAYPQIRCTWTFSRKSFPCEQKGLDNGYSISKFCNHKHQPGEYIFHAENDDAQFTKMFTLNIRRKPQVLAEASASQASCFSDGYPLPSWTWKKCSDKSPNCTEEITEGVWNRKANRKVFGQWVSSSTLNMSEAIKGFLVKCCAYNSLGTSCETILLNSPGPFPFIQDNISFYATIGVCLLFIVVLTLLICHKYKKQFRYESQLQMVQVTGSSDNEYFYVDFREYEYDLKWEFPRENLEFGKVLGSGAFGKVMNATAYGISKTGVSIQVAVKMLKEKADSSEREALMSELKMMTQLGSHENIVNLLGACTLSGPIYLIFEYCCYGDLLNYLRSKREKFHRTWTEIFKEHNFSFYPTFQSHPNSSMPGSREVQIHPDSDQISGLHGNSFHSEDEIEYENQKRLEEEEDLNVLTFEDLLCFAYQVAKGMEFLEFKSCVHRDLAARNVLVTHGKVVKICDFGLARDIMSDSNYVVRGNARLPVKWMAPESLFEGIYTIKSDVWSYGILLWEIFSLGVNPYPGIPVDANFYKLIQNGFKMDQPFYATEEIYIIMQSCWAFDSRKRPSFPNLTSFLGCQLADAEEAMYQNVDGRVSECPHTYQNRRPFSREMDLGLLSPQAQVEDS
T2 sequence (P40337 whole entry partner): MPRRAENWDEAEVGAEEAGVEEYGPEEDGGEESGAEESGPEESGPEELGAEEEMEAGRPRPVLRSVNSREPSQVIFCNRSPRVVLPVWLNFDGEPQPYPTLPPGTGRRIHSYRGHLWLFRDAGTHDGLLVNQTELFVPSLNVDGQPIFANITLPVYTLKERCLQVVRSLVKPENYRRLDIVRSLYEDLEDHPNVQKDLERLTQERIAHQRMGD
T1 sequence (P10721 whole entry, looked up): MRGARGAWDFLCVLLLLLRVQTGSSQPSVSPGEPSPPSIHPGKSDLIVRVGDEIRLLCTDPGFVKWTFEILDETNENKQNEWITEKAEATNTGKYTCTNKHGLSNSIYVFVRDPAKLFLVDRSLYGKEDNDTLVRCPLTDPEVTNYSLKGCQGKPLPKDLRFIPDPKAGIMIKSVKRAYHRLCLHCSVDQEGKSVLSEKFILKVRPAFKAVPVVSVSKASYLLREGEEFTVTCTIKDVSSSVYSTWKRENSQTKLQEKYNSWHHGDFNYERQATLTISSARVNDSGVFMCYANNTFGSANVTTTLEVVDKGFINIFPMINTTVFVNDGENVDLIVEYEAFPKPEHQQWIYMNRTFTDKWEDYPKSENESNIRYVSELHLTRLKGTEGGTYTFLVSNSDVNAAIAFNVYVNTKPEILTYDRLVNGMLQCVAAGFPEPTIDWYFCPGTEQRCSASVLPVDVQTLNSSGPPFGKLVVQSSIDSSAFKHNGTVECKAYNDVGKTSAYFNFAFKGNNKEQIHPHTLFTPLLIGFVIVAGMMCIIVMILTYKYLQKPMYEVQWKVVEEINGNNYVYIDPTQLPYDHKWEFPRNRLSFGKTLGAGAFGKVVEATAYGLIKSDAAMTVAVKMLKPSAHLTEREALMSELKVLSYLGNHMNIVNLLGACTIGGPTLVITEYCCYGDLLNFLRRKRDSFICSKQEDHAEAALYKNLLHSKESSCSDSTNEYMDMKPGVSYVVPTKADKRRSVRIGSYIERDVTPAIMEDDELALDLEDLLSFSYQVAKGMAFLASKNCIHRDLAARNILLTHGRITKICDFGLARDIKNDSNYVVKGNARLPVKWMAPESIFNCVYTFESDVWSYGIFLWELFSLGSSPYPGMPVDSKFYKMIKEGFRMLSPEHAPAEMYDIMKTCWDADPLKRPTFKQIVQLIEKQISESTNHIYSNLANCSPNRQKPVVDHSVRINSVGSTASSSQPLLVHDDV
T1 sequence (P40337 whole entry, looked up): as the sequence (P40337 whole entry partner) above

Take `Cc1ncsc1-c1ccc(CNC(=O)[C@@H]2C[C@@H](O)CN2C(=O)[C@@H](NC(=O)COCCOCCOCCNC(=O)c2c(C)[nH]c(/C=C3\C(=O)Nc4ccc(F)cc43)c2C)C(C)(C)C)cc1`: the concentration for half-maximal inhibition (IC50) amounted to 15.2 µM in the data set with K562 [1], 12.7 µM with HL-60 [2] and 18.1 µM in the data set with A498 [3].

Consider `Cc1ncsc1-c1ccc(CNC(=O)[C@@H]2C[C@@H](O)CN2C(=O)[C@@H](NC(=O)COCCOCCNC(=O)c2c(C)[nH]c(/C=C3\C(=O)Nc4ccc(F)cc43)c2C)C(C)(C)C)cc1`, for which the outcome (in the data set on HL-60 [4]; in [5]; in the data set on K562 [6]; in data set [7]; in the data set with A498 [9]; in data set [11]) was Active. Besides, the outcome in data set [12], in data set [13], in data set [14] and in data set [15] was Active. The IC50 in the data set on K562 [1] was 11.6 µM; with HL-60 [2], 2.9 µM; in [8], above 100 µM; in the data set with A498 [3], 13.1 µM. Also, the Activity entry in data set [10] is “Tde”.

Regarding `CCN(CCNC(=O)c1c(C)[nH]c(/C=C2\C(=O)Nc3ccc(F)cc32)c1C)CC(=O)N[C@H](C(=O)N1C[C@H](O)C[C@H]1C(=O)NCc1ccc(-c2scnc2C)cc1)C(C)(C)C`, the result (in the data set with HL-60 [4]; in the data set on K562 [6]; in the data set with A498 [9]; in [12]) was Active. Moreover, the IC50 in the data set on K562 [1] is 8.4 µM; with HL-60 [2], 36.5 µM; in data set [8], above 100 µM; in the data set on A498 [3], 26.5 µM.

Consider `CCN(CC)CCNC(=O)c1c(C)[nH]c(/C=C2\C(=O)Nc3ccc(F)cc32)c1C` [SUNITINIB], for which the IC50 turned out to be 5.8 µM with K562 [1], 8.7 µM with HL-60 [2] and 1.2 µM with A498 [3].

Turning to `CC(C)C[C@@H](C=O)NC(=O)[C@H](CC(C)C)NC(=O)[C@H](CC(C)C)NC(=O)OCc1ccccc1` (Cbz-Leu-Leu-Leu-aldehyde), the result in [16] was Active.
